# pIC50: −log10 of the molar value. Counter-ions that a name gives are not always drawn.
# System: human primary T-cells, IL-2 stimulated proliferation (JAK-1 and JAK-3 dependent; reported as JAK3 activity)
# Test: Human primary T-cell proliferation stimulated by IL-2 (Example 3)
# Assay type: cell-based
# Details: Homo sapiens, T-cell, tested under conditions described in Example 3 (IL-2 stimulated human primary T-cell proliferation); read-out: ability to inhibit JAK3 activity, IC50 range (Table V)
# In short: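 Peripheral-blood human T-cells pre-activated via TCR/CD28, IL-2-starved overnight, then cultured 72 h at 37 °C with compound in Yssel's medium containing IL-2 (80 U/mL in cell suspension). Proliferation read as viable-cell ATP by CellTiter-Glo luminescence; reduction versus control taken as JAK pathway inhibition.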
row,SMILES,pIC50
1,"Cc1cnc(Nc2cc(C(C)O)cc(C(F)(F)F)c2)nc1Nc1ccc2oc(=O)[nH]c2c1 (stereo not drawn) [Compound I-446, 5-(2-(3-(1-hydroxyethyl)-5-(trifluoromethyl)phenylamino)-5-methylpyrimidin-4-ylamino)benzo[d]oxazol-2(3H)-one]",> 6.30
2,"Cc1cnc(Nc2ccc(N3CCC(NCC4CC4)C3)nc2)nc1Nc1ccc2oc(=O)[nH]c2c1 (stereo not drawn) [II-94, 5-(2-(6-(3-(cyclopropylmethylamino)pyrrolidin-1-yl)pyridin-3-ylamino)-5-methylpyrimidin-4-ylamino)benzo[d]oxazol-2(3H)-one]",> 6.30
3,"Cc1cccc(Nc2ncc(C)c(Nc3ccc4oc(=O)[nH]c4c3)n2)c1 [Compound I-403, 5-(5-Methyl-2-m-tolylamino-pyrimidin-4-ylamino)-3H-benzooxazol-2-one]",> 6.30
4,"Cc1cc(Nc2ncc(C)c(Nc3ccc4oc(=O)[nH]c4c3)n2)ccc1C(=O)O [Compound I-170, 2-Methyl-4-[5-methyl-4-(2-oxo-2,3-dihydro-benzooxazol-5-ylamino)-pyrimidin-2-ylamino]-benzoic acid]",< 5.00
5,"COc1cc(Nc2ncc(C)c(Nc3cc(C)c4oc(=O)[nH]c4c3)n2)cc(C)c1OC [Compound I-453, 5-(2-(3,4-dimethoxy-5-methylphenylamino)-5-methylpyrimidin-4-ylamino)-7-methylbenzo[d]oxazol-2(3H)-one]",> 6.30
6,"CC(=O)c1cccc(Nc2ncc(C)c(Nc3ccc4oc(=O)[nH]c4c3)n2)c1 [Compound I-130, 5-[2-(3-Acetyl-phenylamino)-5-methyl-pyrimidin-4-ylamino]-3H-benzooxazol-2-one]",> 6.30
7,"Cc1cc(Nc2ncc(C)c(Nc3ccc4oc(=O)[nH]c4c3)n2)ccc1C(C)C [Compound I-166, 5-[2-(4-Isopropyl-3-methyl-phenylamino)-5-methyl-pyrimidin-4-ylamino]-3H-benzooxazol-2-one]",> 6.30
8,"Cc1cnc(Nc2ccc3c(c2)NC(=O)CC3)nc1Nc1ccc2oc(=O)[nH]c2c1 [IV-24, 5-(5-methyl-2-(2-oxo-1,2,3,4-tetrahydroquinolin-7-ylamino)pyrimidin-4-ylamino)benzo[d]oxazol-2(3H)-one]",> 6.30
9,"COC(=O)c1ccc(Nc2ncc(C)c(Nc3ccc4oc(=O)[nH]c4c3)n2)cc1 [Compound I-125, 4-[5-Methyl-4-(2-oxo-2,3-dihydro-benzooxazol-5-ylamino)-pyrimidin-2-ylamino]-benzoic acid methyl ester]",> 6.30
10,"Cc1cnc(Nc2ccc3c(c2)CC(=O)N3C)nc1Nc1ccc2oc(=O)[nH]c2c1 [IV-27, 5-(5-methyl-2-(1-methyl-2-oxoindolin-5-ylamino)pyrimidin-4-ylamino)benzo[d]oxazol-2(3H)-one]",> 6.30
11,"COc1cc(Nc2ncc(C)c(Nc3ccc4oc(=O)[nH]c4c3)n2)cc(C(=O)N2CCN(C)CC2)c1 [Compound I-255, 5-(2-(3-methoxy-5-(4-methylpiperazine-1-carbonyl)phenylamino)-5-methylpyrimidin-4-ylamino)benzo[d]oxazol-2(3H)-one]",> 6.30
12,"COc1cc(Nc2ncc(C)c(Nc3ccc4oc(=O)[nH]c4c3)n2)cc(C(C)NC2CC2)c1 (stereo not drawn) [Compound I-233, 5-(2-(3-(1-(cyclopropylamino)ethyl)-5-methoxyphenylamino)-5-methylpyrimidin-4-ylamino)benzo[d]oxazol-2(3H)-one]",> 6.30
13,"Cc1cnc(Nc2ccc(NC3CC4CCC(C3)N4C)nc2)nc1Nc1ccc2oc(=O)[nH]c2c1 (stereo not drawn) [II-37, N4-(benzo[d]oxazol-2(3H)-on-5-yl)-N2-[2-(8-methyl-8-aza-bicyclo[3.2.1]oct-3-yl)aminopyridin-5-yl]-5-methylpyrimidine-2,4-diamine]",5.30 to 6.30
14,"CCOc1ccc(Nc2ncc(C)c(Nc3ccc4oc(=O)[nH]c4c3)n2)cc1C(F)(F)F [Compound I-168, 5-[2-(4-Ethoxy-3-trifluoromethyl-phenylamino)-5-methyl-pyrimidin-4-ylamino]-3H-benzooxazol-2-one]",5.30 to 6.30
15,"Cc1cnc(Nc2cnc3onc(C)c3c2)nc1Nc1ccc2oc(=O)[nH]c2c1 [IV-43, 5-methyl-N2-(3-methylisoxazolo[5,4-b]pyridin-5-yl)-N4-(2-oxo-2,3-dihydro-1,3-benzoxazol-5-yl)-2,4-pyrimidinediamine]",> 6.30
16,"Cc1cnc(Nc2ccc3c(c2)CN(CCC(C)C)C3)nc1Nc1ccc2oc(=O)[nH]c2c1 [III-9, N4-(benzo[d]oxazol-2(3H)-on-5-yl)-N2-(2-isopentylisoindolin-5-yl)-5-methylpyrimidine-2,4-diamine]",> 6.30
17,"Cc1cnc(Nc2ccc(N3CCNC(C)C3)nc2)nc1Nc1ccc2oc(=O)[nH]c2c1 (stereo not drawn) [II-12, N4-(benzo[d]oxazol-2(3H)-on-5-yl)-N2-(6-(3-methylpiperazin-1-yl)pyridin-3-yl)-5-methylpyrimidine-2,4-diamine]",> 6.30
18,"Cc1cnc(Nc2cnc(N3CC4CCC(C3)N4C)c(C)c2)nc1Nc1ccc2oc(=O)[nH]c2c1 [II-64, 5-(5-methyl-2-(5-methyl-6-(8-methyl-3,8-diaza-bicyclo[3.2.1]octan-3-yl)pyridin-3-ylamino)pyrimidin-4-ylamino)benzo[d]oxazol-2(3H)-one]",> 6.30
19,"COc1ccc(F)c(Nc2ncc(C)c(Nc3ccc4oc(=O)[nH]c4c3)n2)c1 [Compound I-533, 5-(2-(2-fluoro-5-methoxyphenylamino)-5-methylpyrimidin-4-ylamino)benzo[d]oxazol-2(3H)-one]",> 6.30
20,"COc1cc(Nc2ncc(C)c(Nc3ccc4oc(=O)[nH]c4c3)n2)cc(C(C)=O)c1 [Compound I-229, 5-(2-(3-acetyl-5-methoxyphenylamino)-5-methylpyrimidin-4-ylamino)benzo[d]oxazol-2(3H)-one]",> 6.30
21,"Cc1cnc(Nc2ccc(C3NCC4CCCCC43)nc2)nc1Nc1ccc2oc(=O)[nH]c2c1 (stereo not drawn) [II-121, 5-methyl-N2-[2-(octahydroisoindol-1-yl)pyridin-5-yl]-N4-(2-oxo-2,3-dihydro-1,3-benzoxazol-5-yl)-2,4-pyrimidinediamine]",> 6.30
22,"Cc1cnc(Nc2ccc(N3CCC(NS(C)(=O)=O)C3)nc2)nc1Nc1ccc2oc(=O)[nH]c2c1 (stereo not drawn) [II-93, N-(1-(5-(5-methyl-4-(2-oxo-2,3-dihydrobenzo[d]oxazol-5-ylamino)pyrimidin-2-ylamino)pyridin-2-yl)pyrrolidin-3-yl)methanesulfonamide]",> 6.30
23,"CCN(CC)C1CCN(C(C)c2ccc(Nc3ncc(C)c(Nc4ccc5oc(=O)[nH]c5c4)n3)cc2)C1 (stereo not drawn) [Compound I-205, 5-(2-(4-(1-(3-(diethylamino)pyrrolidin-1-yl)ethyl)phenylamino)-5-methylpyrimidin-4-ylamino)benzo[d]oxazol-2(3H)-one]",> 6.30
24,"Cc1cnc(Nc2ccc3ccncc3c2)nc1Nc1ccc2oc(=O)[nH]c2c1 [IV-57, 5-[2-(Isoquinolin-7-ylamino)-5-methyl-pyrimidin-4-ylamino]-3H-benzooxazol-2-one]",< 5.00
25,"Cc1cnc(Nc2ccc3cnn(C)c3c2)nc1Nc1ccc2oc(=O)[nH]c2c1 [IV-41, 5-methyl-N2-(1-methylindazol-6-yl)-N4-(2-oxo-2,3-dihydro-1,3-benzoxazol-5-yl)-2,4-pyrimidinediamine]",> 6.30
26,"Cc1cnc(Nc2ccc(OC(F)(F)F)c(C(F)(F)F)c2)nc1Nc1ccc2oc(=O)[nH]c2c1 [Compound I-161, 5-[5-Methyl-2-(4-trifluoromethoxy-3-trifluoromethyl-phenylamino)-pyrimidin-4-ylamino]-3H-benzooxazol-2-one]",> 6.30

# Same assay, conditions: tested under conditions described in Example 3 (IL-2 stimulated human primary T-cell proliferation); read-out: ability to inhibit JAK3 activity, IC50 range (Table V)
row,SMILES,pIC50
1,"Cc1cnc(Nc2cc(C)c(F)c(C)c2)nc1Nc1ccc2oc(=O)n(COP(=O)(O)O)c2c1 [Compound I-451, N2-(3,5-dimethyl-4-fluoro)phenyl-5-methyl-N4-[3-(phosphonooxy)methyl-2-oxo-2,3-dihydro-1,3-benzoxazol-5-yl]-2,4-pyrimidinediamine bis-sodium salt]",5.30 to 6.30
2,"Cc1cnc(Nc2ccc(F)c(OC(C)(C)C(N)=O)c2)nc1Nc1ccc2oc(=O)[nH]c2c1 [Compound I-386, N2-[3-(1-aminocarbonyl-1-methyl)ethoxy-4-fluoro]phenyl-5-methyl-N4-(2-oxo-2,3-dihydro-1,3-benzoxazol-5-yl)-2,4-pyrimidinediamine]",> 6.30
3,"Cc1cnc(Nc2cc(OC(C)C)cc(C(F)(F)F)c2)nc1Nc1ccc2oc(=O)[nH]c2c1 [Compound I-372, N2-(3-isopropoxy-5-trifluoromethyl)phenyl-5-methyl-N4-(2-oxo-2,3-dihydro-1,3-benzoxazol-5-yl)-2,4-pyrimidinediamine]",> 6.30
4,"Cc1cnc(Nc2cc(C#N)cc(OC(F)F)c2)nc1Nc1ccc2oc(=O)[nH]c2c1 [Compound I-478, N2-(3-cyano-5-difluoromethoxy)phenyl-5-methyl-N4-(2-oxo-2,3-dihydro-1,3-benzoxazol-5-yl)-2,4-pyrimidinediamine]",> 6.30
5,"CCCN1CCN(c2cc(Nc3ncc(C)c(Nc4ccc5oc(=O)[nH]c5c4)n3)ccc2C(F)(F)F)CC1 [Compound I-285, 5-methyl-N4-(2-oxo-2,3-dihydro-1,3-benzoxazol-5-yl)-N2-[3-(4-propylpiperazino)-4-trifluoromethyl]phenyl-2,4-pyrimidinediamine]",> 6.30
6,"CN1CCN(c2ccc(Nc3ncc(F)c(Nc4ccc5[nH]c(=O)[nH]c5c4)n3)cn2)CC1 [II-16, N4-(benzimidazolin-2-on-5-yl)-N2-[2-(4-methylpiperazin-1-yl)pyridin-5-yl]-5-fluoropyrimidine-2,4-diamine]",> 6.30
7,"Cc1cc(C)cc(Nc2ncc(C)c(Nc3ccc4oc(=O)[nH]c4c3)n2)c1 [Compound I-302, N2-(3,5-dimethyl)phenyl-5-methyl-N4-(2-oxo-2,3-dihydro-1,3-benzoxazol-5-yl)-2,4-pyrimidinediamine]",> 6.30

# Source: patent US10005767B2, “Compositions and methods for inhibition of the JAK pathway” (Rigel Pharmaceuticals, Inc., priority 2009, dated 2018)
